Measured values as given in patent US20090227607A1, “DEAZAPURINES USEFUL AS INHIBITORS OF JANUS KINASES” (priority 2006, published 2009).

target: T1, JAK3 (Homo sapiens, UniProt P52333); assay: JAK3 Inhibition Assay; format: biochemical; conditions: 1 μM poly(Glu)4Tyr, 5 μM ATP, 1 nM JAK3, 25° C.; read-out: JAK3 enzyme inhibition data (Ki)
T1 sequence (P52333 1-1124): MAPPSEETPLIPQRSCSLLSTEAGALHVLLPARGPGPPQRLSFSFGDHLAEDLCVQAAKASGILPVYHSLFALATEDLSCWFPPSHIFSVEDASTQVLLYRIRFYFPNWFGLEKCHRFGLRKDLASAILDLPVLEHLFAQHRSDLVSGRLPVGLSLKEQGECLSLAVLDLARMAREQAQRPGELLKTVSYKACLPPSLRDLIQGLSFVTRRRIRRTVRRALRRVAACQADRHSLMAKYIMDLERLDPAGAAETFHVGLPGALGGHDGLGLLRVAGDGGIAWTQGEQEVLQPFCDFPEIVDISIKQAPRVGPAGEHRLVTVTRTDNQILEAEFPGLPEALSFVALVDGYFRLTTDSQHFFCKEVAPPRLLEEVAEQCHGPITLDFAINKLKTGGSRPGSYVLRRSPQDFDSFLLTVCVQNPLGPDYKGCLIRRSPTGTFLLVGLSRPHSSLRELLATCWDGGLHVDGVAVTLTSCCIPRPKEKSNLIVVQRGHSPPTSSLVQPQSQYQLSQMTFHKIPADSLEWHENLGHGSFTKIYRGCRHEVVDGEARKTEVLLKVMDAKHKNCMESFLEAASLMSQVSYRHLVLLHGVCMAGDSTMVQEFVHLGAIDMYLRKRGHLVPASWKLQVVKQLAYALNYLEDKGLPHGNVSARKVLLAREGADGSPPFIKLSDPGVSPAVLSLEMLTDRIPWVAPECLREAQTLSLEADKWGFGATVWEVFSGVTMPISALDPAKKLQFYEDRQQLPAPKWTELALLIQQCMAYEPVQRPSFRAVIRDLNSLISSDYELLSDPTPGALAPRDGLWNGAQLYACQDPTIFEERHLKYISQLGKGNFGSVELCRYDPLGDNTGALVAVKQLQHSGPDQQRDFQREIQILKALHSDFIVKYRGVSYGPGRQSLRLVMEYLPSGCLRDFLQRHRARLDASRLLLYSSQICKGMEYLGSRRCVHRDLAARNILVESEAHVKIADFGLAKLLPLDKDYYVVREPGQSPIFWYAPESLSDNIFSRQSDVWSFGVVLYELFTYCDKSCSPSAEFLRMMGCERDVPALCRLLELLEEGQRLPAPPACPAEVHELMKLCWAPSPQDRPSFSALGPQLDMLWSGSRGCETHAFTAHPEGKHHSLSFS
Protocol: (§1) Compounds were screened for their ability to inhibit JAK3 using the assay shown below. Reactions were carried out in a kinase buffer containing 100 mM HEPES (pH 7.4), 1 mM DTT, 10 mM MgCl2, 25 mM NaCl, and 0.01% BSA. Substrate concentrations in the assay were 5 μM ATP (200 uCi/μmole ATP) and 1 μM poly(Glu)4Tyr. Reactions were carried out at 25° C. and 1 nM JAK3.
(§2) To each well of a 96 well polycarbonate plate was added 1.5 μl of a candidate JAK3 inhibitor along with 50 μl of kinase buffer containing 2 μM poly(Glu)4Tyr and […]. This was then mixed and […] of kinase buffer containing 2 nM JAK3 enzyme was added to start the reaction. After 20 minutes at room temperature (25° C.), the reaction was stopped with 50 μl of 20% trichloroacetic acid (TCA) that also contained 0.4 mM ATP. The entire contents of each well were then transferred to a 96 well glass fiber filter plate using a TomTek Cell Harvester. After washing, 60 μl of scintillation fluid was added and ^33P incorporation detected on a Perkin Elmer TopCount.
(§3) Tables 5 and 6 depict enzyme inhibition data (Ki) for certain exemplary compounds. Compound numbers in Tables 5 and 6 correspond to those compounds depicted in Tables 1 and 2, respectively.

| Compound | Ki |
| --- | --- |
| N#CCN(Cc1cccc(Cl)c1)C(=O)c1cc(-c2ncnc3[nH]ccc23)c[nH]1 [Compound 113] | < 100 nM |
| C=CCN(C(=O)c1cc(-c2ncnc3[nH]ccc23)c[nH]1)C(C)c1ccccc1 (stereo not shown) [Compound 114] | < 100 nM |
| COC1CCC(C(=O)Nc2nc(-c3ncnc4[nH]ccc34)cs2)CC1 (stereo not shown) [Compound 117] | 100 to 500 nM |
| CCN(Cc1ccccc1)C(=O)c1ccc(-c2ncnc3[nH]ccc23)o1 [Compound 118] | < 100 nM |
| CN(CCC#N)C(=O)c1ccc(-c2ncnc3[nH]ccc23)o1 [Compound 119] | < 100 nM |
| O=C(c1ccc(-c2ncnc3[nH]ccc23)o1)N(CC1CC1)CC(F)(F)F [Compound 120] | < 100 nM |
| CCCN(CC(F)(F)F)C(=O)c1ccc(-c2ncnc3[nH]ccc23)o1 [Compound 121] | < 100 nM |
| CN(CC(F)(F)F)C(=O)c1ccc(-c2ncnc3[nH]ccc23)o1 [Compound 127] | < 100 nM |
| CC(C)CC(=O)N(CCCC(F)(F)F)c1nc(-c2ncnc3[nH]ccc23)cs1 [Compound 129] | 100 to 500 nM |
| Nc1[nH]ncc1-c1ncnc2[nH]ccc12 [Compound 130] | 100 to 500 nM |
| N#CCCN(CCC#N)C(=O)c1cc(-c2ncnc3[nH]ccc23)c[nH]1 [Compound 134] | < 100 nM |
| N#CCCN(CC1CCCO1)C(=O)c1cc(-c2ncnc3[nH]ccc23)c[nH]1 (stereo not shown) [Compound 136] | 100 to 500 nM |
| C#CCN(C(=O)c1cc(-c2ncnc3[nH]ccc23)c[nH]1)C1CCCCC1 [Compound 137] | 100 to 500 nM |

The remaining lines, values ahead:

| Ki | Compound |
| --- | --- |
| < 100 nM | N#CCCN(CC1CC1)C(=O)c1cc(-c2ncnc3[nH]ccc23)c[nH]1 [Compound 115] |
| < 100 nM | C=CCN(C(=O)c1cc(-c2ncnc3[nH]ccc23)c[nH]1)C(C)c1ccccc1 (stereo not shown) [Compound 116] |
| < 100 nM | O=C(c1ccc(-c2ncnc3[nH]ccc23)o1)N(CCC(F)(F)F)CC1CC1 [Compound 122] |
| < 100 nM | O=C(c1ccc(-c2ncnc3[nH]ccc23)o1)N(CCC(F)(F)F)Cc1ccccc1 [Compound 123] |
| 100 to 500 nM | N#CCN(Cc1ccccc1)C(=O)c1ccc(-c2ncnc3[nH]ccc23)o1 [Compound 124] |
| < 100 nM | N#CCCN(CC1CC1)C(=O)c1ccc(-c2ncnc3[nH]ccc23)o1 [Compound 125] |
| < 100 nM | C[C@@H]1CC[C@@H](C)N1C(=O)c1ccc(-c2ncnc3[nH]ccc23)o1 [Compound 126] |
| < 100 nM | C=CCN(C(=O)CC(C)C)c1nc(-c2ncnc3[nH]ccc23)cs1 [Compound 128] |
| < 100 nM | FC(F)(F)CN(Cc1coc(-c2ncnc3[nH]ccc23)c1)CC1CC1 [Compound 131] |
| 100 to 500 nM | C[C@@H]1CC[C@H](C)N1C(=O)c1cc(-c2ncnc3[nH]ccc23)c[nH]1 [Compound 132] |
| 100 to 500 nM | C[C@@H](O)CNC(=O)c1cc(-c2ncnc3[nH]ccc23)c[nH]1 [Compound 133] |
| < 100 nM | N#CCCN(Cc1ccco1)C(=O)c1cc(-c2ncnc3[nH]ccc23)c[nH]1 [Compound 135] |
| < 100 nM | CCC(CC)CNC(=O)c1cc(-c2ncnc3[nH]ccc23)c[nH]1 [Compound 138] |

target: JAK-2 enzyme (Homo sapiens, UniProt O60674); assay: JAK2 Inhibition Assay; format: biochemical; conditions: 15 μM poly(Glu)4Tyr, 12 μM ATP, 25° C.
Sequence (O60674 whole entry, species assumed): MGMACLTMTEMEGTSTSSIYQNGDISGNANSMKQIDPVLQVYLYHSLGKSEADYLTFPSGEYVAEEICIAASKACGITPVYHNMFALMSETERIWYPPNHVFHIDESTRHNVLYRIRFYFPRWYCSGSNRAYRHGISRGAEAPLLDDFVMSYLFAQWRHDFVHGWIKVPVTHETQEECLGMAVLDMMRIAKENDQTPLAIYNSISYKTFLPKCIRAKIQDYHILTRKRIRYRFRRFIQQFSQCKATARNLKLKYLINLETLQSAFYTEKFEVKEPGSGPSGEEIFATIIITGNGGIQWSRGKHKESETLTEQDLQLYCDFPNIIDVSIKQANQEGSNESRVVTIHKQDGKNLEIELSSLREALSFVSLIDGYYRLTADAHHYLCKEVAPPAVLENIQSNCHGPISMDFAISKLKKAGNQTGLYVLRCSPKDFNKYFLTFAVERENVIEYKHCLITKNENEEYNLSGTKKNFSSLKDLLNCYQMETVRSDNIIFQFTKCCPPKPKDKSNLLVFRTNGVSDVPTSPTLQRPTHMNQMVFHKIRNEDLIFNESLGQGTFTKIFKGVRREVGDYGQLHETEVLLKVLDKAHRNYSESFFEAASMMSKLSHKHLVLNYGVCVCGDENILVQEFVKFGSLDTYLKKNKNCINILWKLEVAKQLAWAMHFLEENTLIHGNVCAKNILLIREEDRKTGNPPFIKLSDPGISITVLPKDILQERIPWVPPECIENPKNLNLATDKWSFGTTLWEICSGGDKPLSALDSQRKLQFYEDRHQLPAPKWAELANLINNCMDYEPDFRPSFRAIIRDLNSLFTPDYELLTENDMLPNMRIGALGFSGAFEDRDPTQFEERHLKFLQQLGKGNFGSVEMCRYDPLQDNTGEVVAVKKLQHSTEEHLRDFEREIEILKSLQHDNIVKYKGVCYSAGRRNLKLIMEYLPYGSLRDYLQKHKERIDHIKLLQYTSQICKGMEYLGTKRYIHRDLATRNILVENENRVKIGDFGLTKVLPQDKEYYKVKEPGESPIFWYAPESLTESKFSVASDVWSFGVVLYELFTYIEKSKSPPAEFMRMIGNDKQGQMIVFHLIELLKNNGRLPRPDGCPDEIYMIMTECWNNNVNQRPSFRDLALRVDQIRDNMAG
Protocol: as §1, §2
The assays were as described above in Example 36 except that JAK-2 enzyme was used, the final poly(Glu)4Tyr concentration was 15 μM, and final ATP concentration was 12 μM.
as §3

| Compound | Ki |
| --- | --- |
| N#CCN(Cc1cccc(Cl)c1)C(=O)c1cc(-c2ncnc3[nH]ccc23)c[nH]1 [Compound 113] | < 100 nM |
| C=CCN(C(=O)c1cc(-c2ncnc3[nH]ccc23)c[nH]1)C(C)c1ccccc1 (stereo not shown) [Compound 114] | < 100 nM |
| COC1CCC(C(=O)Nc2nc(-c3ncnc4[nH]ccc34)cs2)CC1 (stereo not shown) [Compound 117] | < 100 nM |
| CCN(Cc1ccccc1)C(=O)c1ccc(-c2ncnc3[nH]ccc23)o1 [Compound 118] | < 100 nM |
| CN(CCC#N)C(=O)c1ccc(-c2ncnc3[nH]ccc23)o1 [Compound 119] | < 100 nM |
| O=C(c1ccc(-c2ncnc3[nH]ccc23)o1)N(CC1CC1)CC(F)(F)F [Compound 120] | < 100 nM |
| CCCN(CC(F)(F)F)C(=O)c1ccc(-c2ncnc3[nH]ccc23)o1 [Compound 121] | < 100 nM |
| CN(CC(F)(F)F)C(=O)c1ccc(-c2ncnc3[nH]ccc23)o1 [Compound 127] | < 100 nM |
| CC(C)CC(=O)N(CCCC(F)(F)F)c1nc(-c2ncnc3[nH]ccc23)cs1 [Compound 129] | < 100 nM |
| Nc1[nH]ncc1-c1ncnc2[nH]ccc12 [Compound 130] | 100 to 500 nM |
| N#CCCN(CCC#N)C(=O)c1cc(-c2ncnc3[nH]ccc23)c[nH]1 [Compound 134] | < 100 nM |
| N#CCCN(CC1CCCO1)C(=O)c1cc(-c2ncnc3[nH]ccc23)c[nH]1 (stereo not shown) [Compound 136] | < 100 nM |
| C#CCN(C(=O)c1cc(-c2ncnc3[nH]ccc23)c[nH]1)C1CCCCC1 [Compound 137] | < 100 nM |

The remaining lines, values ahead:

| Ki | Compound |
| --- | --- |
| < 100 nM | N#CCCN(CC1CC1)C(=O)c1cc(-c2ncnc3[nH]ccc23)c[nH]1 [Compound 115] |
| < 100 nM | C=CCN(C(=O)c1cc(-c2ncnc3[nH]ccc23)c[nH]1)C(C)c1ccccc1 (stereo not shown) [Compound 116] |
| < 100 nM | O=C(c1ccc(-c2ncnc3[nH]ccc23)o1)N(CCC(F)(F)F)CC1CC1 [Compound 122] |
| < 100 nM | O=C(c1ccc(-c2ncnc3[nH]ccc23)o1)N(CCC(F)(F)F)Cc1ccccc1 [Compound 123] |
| < 100 nM | N#CCN(Cc1ccccc1)C(=O)c1ccc(-c2ncnc3[nH]ccc23)o1 [Compound 124] |
| < 100 nM | N#CCCN(CC1CC1)C(=O)c1ccc(-c2ncnc3[nH]ccc23)o1 [Compound 125] |
| < 100 nM | C[C@@H]1CC[C@@H](C)N1C(=O)c1ccc(-c2ncnc3[nH]ccc23)o1 [Compound 126] |
| < 100 nM | C=CCN(C(=O)CC(C)C)c1nc(-c2ncnc3[nH]ccc23)cs1 [Compound 128] |
| < 100 nM | FC(F)(F)CN(Cc1coc(-c2ncnc3[nH]ccc23)c1)CC1CC1 [Compound 131] |
| < 100 nM | C[C@@H]1CC[C@H](C)N1C(=O)c1cc(-c2ncnc3[nH]ccc23)c[nH]1 [Compound 132] |
| < 100 nM | C[C@@H](O)CNC(=O)c1cc(-c2ncnc3[nH]ccc23)c[nH]1 [Compound 133] |
| < 100 nM | N#CCCN(Cc1ccco1)C(=O)c1cc(-c2ncnc3[nH]ccc23)c[nH]1 [Compound 135] |
| < 100 nM | CCC(CC)CNC(=O)c1cc(-c2ncnc3[nH]ccc23)c[nH]1 [Compound 138] |
